US20230277630A1, “METHODS AND COMPOSITIONS FOR TREATING AMYOTROPHIC LATERAL SCLEROSIS” (Amylyx Pharmaceuticals, Inc., priority 2022, published 2023)
Several values for one entry are separate records, joined by “and”; a condition that tells them apart may be missing. Identical values can stand only once.

Experiments:
OATP1B1 = biological target: T1, OATP1B1 (Homo sapiens, UniProt Q9Y6L6)
T1 sequence (Q9Y6L6 1-691): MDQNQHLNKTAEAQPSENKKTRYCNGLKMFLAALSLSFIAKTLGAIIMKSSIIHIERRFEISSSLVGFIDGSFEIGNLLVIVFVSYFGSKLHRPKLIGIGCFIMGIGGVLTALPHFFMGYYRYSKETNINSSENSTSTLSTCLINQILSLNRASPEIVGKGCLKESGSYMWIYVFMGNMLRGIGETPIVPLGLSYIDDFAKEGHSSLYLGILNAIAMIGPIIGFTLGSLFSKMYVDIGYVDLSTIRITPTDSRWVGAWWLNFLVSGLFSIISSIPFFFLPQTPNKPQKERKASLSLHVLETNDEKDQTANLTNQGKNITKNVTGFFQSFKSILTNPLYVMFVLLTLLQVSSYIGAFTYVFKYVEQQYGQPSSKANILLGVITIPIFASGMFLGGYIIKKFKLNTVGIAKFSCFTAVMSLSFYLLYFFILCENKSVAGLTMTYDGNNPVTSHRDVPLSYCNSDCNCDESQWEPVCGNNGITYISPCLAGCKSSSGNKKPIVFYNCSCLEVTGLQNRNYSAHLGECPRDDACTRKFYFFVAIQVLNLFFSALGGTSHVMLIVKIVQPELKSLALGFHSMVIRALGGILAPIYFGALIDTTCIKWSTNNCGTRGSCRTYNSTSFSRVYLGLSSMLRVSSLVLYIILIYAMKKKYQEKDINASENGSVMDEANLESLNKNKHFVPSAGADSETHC

MATE1 = biological target: T2, MATE1 (Homo sapiens, UniProt Q96FL8)
T2 sequence (Q96FL8 1-570): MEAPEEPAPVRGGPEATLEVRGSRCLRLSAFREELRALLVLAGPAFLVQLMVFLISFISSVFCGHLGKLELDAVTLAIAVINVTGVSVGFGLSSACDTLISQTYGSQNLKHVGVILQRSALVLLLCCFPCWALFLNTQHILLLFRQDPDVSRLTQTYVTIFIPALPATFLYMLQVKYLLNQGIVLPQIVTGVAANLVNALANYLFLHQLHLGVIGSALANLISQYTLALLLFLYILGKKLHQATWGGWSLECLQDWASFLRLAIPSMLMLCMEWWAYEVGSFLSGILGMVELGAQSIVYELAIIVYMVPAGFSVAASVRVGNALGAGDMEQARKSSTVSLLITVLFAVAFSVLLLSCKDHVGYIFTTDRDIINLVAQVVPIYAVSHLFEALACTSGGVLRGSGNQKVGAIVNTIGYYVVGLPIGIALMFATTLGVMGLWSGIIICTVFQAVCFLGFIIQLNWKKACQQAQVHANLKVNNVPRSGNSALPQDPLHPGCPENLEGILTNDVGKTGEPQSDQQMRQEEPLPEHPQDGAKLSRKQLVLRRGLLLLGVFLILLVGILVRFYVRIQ

[1] = Human Plasma Protein Binding; assay type: in vitro ADME
OAT3 = biological target: T3, OAT3 (Homo sapiens, UniProt Q8TCC7)
T3 sequence (Q8TCC7 1-542): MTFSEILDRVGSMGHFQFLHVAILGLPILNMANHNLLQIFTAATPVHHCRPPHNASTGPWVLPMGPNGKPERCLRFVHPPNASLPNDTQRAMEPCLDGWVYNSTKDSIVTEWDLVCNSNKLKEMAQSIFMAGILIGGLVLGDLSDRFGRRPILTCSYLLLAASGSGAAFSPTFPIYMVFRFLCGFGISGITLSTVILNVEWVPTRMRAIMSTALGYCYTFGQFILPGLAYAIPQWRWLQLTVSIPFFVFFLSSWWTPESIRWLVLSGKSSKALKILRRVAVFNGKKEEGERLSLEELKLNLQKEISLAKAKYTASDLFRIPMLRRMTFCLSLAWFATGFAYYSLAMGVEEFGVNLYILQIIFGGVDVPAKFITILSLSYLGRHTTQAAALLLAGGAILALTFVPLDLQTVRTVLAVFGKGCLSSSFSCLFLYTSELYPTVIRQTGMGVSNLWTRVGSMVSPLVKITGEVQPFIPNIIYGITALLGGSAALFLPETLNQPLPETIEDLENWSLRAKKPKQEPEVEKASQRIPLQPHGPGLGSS

[2] = biological target: T4, human liver microsomes (HLM) (Homo sapiens, UniProt P05177); test: CYP reaction phenotyping using HLM and chemical inhibitors (% remaining); assay type: in vitro ADME; details: human, microsomes, 5 μM, pH 7.4
T4 construct: from tissue; host or cells: pooled human liver microsomes
T4 sequence (P05177 1-516): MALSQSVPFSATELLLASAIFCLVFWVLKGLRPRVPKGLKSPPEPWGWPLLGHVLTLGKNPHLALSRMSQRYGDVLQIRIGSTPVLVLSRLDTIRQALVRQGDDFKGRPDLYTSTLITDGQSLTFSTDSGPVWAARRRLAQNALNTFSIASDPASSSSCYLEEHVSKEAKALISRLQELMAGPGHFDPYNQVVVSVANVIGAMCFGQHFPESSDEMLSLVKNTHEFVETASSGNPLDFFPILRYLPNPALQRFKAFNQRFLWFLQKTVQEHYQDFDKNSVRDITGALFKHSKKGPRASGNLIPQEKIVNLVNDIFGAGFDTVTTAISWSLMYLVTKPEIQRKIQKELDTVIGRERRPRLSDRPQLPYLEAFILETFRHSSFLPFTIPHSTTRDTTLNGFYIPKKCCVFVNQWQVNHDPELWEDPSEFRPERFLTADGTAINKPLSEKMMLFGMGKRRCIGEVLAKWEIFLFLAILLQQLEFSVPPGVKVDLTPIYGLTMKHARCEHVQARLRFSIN
From the text: (§1) % Remaining of TA=100×At/A0
(§2) Where, At and A0 are the peak area ratio of TA to IS at time t and at time zero, respectively.

[3] = biological target: T5, human liver microsomes (HLM) (Homo sapiens, UniProt P33261); test: as above; assay type: in vitro ADME
T5 construct: from tissue; host or cells: pooled human liver microsomes
From the text: as §1, §2

[4] = biological target: T6, human liver microsomes (HLM) (Homo sapiens, UniProt P10635); test: as above; assay type: in vitro ADME; details: human, microsomes, 5 μM, pH 7.4
T6 construct: from tissue; host or cells: pooled human liver microsomes
From the text: as §1, §2

P-gp = P-gp (Homo sapiens, UniProt P08183); test: P-gp IC50 assessment, bidirectional digoxin transport in MDR1-MDCK cells
[5] = human, microsomes, 0 h, 5 μM, pH 7.4
[6] = human, microsomes, 5 min, 5 μM, pH 7.4
[7] = human, microsomes, 20 min, 5 μM, pH 7.4
[8] = human, microsomes, 1 h, 5 μM, pH 7.4

T6 sequence (P10635 whole entry): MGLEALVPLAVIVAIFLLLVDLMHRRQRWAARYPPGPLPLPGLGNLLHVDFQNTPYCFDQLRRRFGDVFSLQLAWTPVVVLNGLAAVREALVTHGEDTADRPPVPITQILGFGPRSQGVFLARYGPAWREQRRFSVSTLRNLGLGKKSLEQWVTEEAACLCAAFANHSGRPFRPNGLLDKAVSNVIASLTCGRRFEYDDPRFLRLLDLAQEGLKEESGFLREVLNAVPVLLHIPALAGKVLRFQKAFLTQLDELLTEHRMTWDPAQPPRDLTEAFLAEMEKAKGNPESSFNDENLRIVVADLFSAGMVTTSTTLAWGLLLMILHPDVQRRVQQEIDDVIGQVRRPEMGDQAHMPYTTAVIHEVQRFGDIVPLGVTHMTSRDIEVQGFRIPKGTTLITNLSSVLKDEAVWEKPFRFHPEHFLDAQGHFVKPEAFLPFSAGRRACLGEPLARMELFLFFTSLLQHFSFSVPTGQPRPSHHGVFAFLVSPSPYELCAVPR
T5 sequence (P33261 whole entry): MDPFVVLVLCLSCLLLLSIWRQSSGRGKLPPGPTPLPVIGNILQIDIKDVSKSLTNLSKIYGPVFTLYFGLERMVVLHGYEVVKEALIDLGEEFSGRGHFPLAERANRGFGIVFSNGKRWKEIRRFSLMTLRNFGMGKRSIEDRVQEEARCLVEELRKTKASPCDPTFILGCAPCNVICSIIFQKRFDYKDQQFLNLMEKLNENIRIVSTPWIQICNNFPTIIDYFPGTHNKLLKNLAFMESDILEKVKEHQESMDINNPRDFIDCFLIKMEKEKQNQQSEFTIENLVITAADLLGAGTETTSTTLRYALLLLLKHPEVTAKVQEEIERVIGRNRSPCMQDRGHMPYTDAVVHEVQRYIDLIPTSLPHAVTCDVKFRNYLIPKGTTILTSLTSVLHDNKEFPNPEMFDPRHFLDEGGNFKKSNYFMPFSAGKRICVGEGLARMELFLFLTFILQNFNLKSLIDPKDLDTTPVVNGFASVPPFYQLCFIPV
P-gp, sequence (P08183 whole entry): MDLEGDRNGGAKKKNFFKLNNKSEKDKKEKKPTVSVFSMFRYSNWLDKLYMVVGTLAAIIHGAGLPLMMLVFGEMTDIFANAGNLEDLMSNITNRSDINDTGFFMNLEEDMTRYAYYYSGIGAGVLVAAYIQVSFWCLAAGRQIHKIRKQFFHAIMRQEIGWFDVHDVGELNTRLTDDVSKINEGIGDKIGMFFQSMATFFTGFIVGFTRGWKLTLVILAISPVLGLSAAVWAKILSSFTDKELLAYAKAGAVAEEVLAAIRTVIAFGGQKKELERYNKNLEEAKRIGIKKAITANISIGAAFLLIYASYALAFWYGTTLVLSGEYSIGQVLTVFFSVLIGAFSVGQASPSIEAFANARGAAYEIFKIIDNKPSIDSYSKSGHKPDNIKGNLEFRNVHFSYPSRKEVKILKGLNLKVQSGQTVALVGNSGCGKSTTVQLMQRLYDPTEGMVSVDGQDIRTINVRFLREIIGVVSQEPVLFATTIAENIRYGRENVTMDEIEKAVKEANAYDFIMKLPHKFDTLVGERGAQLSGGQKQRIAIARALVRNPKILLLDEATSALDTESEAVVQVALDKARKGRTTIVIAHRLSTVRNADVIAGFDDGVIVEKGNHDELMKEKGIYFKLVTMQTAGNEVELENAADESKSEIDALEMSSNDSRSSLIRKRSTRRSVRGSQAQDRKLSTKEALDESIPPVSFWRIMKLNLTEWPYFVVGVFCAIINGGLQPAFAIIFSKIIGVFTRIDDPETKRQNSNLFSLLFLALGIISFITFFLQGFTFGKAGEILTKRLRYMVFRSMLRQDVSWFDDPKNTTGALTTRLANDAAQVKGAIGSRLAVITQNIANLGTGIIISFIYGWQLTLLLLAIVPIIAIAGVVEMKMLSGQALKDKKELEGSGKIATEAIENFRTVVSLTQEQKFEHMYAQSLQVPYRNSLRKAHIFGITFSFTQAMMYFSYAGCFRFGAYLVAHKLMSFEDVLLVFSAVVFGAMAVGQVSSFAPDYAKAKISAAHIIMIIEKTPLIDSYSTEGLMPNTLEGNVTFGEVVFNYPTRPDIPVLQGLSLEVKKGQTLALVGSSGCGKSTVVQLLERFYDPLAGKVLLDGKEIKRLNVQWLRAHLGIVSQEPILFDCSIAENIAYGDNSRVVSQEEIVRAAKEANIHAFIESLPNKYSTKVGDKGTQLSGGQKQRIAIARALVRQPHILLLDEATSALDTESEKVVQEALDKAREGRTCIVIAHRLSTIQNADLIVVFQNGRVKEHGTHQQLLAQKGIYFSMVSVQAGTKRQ

| Compound | IC50 (OATP1B1) [µM] | IC50 (MATE1) [µM] | fraction unbound [1] | IC50 (OAT3) | % Remaining of TA (n = 3) Average ([2]; 0 h) [%] | % Remaining of TA (n = 3) Average ([2]; 5 min) [%] | % Remaining of TA (n = 3) Average ([2]; 10 min) [%] | % Remaining of TA (n = 3) Average ([2]; 20 min) [%] | % Remaining of TA (n = 3) Average ([2]; 0.5 h) [%] | % Remaining of TA (n = 3) Average ([2]; 1 h) [%] | % Remaining of TA (n = 3) Average [3, 5] [%] | % Remaining of TA (n = 3) Average [3, 6] [%] | % Remaining of TA (n = 3) Average [3, 7] [%] | % Remaining of TA (n = 3) Average [3, 8] [%] | % Remaining of TA (n = 3) Average ([4]; 0 h) [%] | % Remaining of TA (n = 3) Average ([4]; 20 min) [%] | % Remaining of TA (n = 3) Average ([4]; 1 h) [%] | IC50 (P-gp) [µM] | also measured |
| --- | --- | --- | --- | --- | --- | --- | --- | --- | --- | --- | --- | --- | --- | --- | --- | --- | --- | --- | --- |
| O=C(O)CCCc1ccccc1 [PB, sodium phenylbutyrate] | 1210 to 3630 | 24600 to 73900 | 0.179 | 4930 to 14800 µM | 100 | 116 | 131 | 125 | 127 | 128 | 100 | 101 | 101 | 101 | 100 | 97.5 | 98.8 | 7160 to 21500 | % Remaining of TA (n = 3) Average ([3]; human, microsomes, 0.5 h, 5 μM, pH 7.4): 101% |
| C[C@H](CCC(=O)NCCS(=O)(=O)O)[C@H]1CC[C@H]2[C@@H]3[C@@H](O)C[C@@H]4C[C@H](O)CC[C@]4(C)[C@H]3CC[C@]12C [TUDCA, tauroursodeoxycholic acid] | 12.9 to 38.7 | 270 to 810 | 0.015 | 54 to 162 µM and 5.4 to 162 µM | 100 | 123 | 123 | 121 | 120 | 128 | 100 | 106 | 93.1 | 94.5 | 100 | 99.7 | 87.2 | 889 to 2670 | % Remaining of TA (n = 3) Average ([3]; human, microsomes, 10 min, 5 μM, pH 7.4): 93.0%; % Remaining of TA (n = 3) Average ([3]; reversible incubation condition, CYP2C19 (+NADPH, +N3B), 30 min): 92.1%; % Remaining of TA (n = 3) Average ([4]; 5 min): 101%; % Remaining of TA (n = 3) Average ([4]; 10 min): 110%; % Remaining of TA (n = 3) Average ([4]; 0.5 h): 101% |
